Among the data in patent publication US9902696B2, “1,4-substituted piperidine derivatives” (Cephalon, Inc., priority 2015, dated 2018) are IC50 values, retold here.

Molecules are shown by their SMILES. pIC50: −log10 of the molar value. Counter-ions that a name gives are not always drawn.

T1 sequence (P49327 whole entry): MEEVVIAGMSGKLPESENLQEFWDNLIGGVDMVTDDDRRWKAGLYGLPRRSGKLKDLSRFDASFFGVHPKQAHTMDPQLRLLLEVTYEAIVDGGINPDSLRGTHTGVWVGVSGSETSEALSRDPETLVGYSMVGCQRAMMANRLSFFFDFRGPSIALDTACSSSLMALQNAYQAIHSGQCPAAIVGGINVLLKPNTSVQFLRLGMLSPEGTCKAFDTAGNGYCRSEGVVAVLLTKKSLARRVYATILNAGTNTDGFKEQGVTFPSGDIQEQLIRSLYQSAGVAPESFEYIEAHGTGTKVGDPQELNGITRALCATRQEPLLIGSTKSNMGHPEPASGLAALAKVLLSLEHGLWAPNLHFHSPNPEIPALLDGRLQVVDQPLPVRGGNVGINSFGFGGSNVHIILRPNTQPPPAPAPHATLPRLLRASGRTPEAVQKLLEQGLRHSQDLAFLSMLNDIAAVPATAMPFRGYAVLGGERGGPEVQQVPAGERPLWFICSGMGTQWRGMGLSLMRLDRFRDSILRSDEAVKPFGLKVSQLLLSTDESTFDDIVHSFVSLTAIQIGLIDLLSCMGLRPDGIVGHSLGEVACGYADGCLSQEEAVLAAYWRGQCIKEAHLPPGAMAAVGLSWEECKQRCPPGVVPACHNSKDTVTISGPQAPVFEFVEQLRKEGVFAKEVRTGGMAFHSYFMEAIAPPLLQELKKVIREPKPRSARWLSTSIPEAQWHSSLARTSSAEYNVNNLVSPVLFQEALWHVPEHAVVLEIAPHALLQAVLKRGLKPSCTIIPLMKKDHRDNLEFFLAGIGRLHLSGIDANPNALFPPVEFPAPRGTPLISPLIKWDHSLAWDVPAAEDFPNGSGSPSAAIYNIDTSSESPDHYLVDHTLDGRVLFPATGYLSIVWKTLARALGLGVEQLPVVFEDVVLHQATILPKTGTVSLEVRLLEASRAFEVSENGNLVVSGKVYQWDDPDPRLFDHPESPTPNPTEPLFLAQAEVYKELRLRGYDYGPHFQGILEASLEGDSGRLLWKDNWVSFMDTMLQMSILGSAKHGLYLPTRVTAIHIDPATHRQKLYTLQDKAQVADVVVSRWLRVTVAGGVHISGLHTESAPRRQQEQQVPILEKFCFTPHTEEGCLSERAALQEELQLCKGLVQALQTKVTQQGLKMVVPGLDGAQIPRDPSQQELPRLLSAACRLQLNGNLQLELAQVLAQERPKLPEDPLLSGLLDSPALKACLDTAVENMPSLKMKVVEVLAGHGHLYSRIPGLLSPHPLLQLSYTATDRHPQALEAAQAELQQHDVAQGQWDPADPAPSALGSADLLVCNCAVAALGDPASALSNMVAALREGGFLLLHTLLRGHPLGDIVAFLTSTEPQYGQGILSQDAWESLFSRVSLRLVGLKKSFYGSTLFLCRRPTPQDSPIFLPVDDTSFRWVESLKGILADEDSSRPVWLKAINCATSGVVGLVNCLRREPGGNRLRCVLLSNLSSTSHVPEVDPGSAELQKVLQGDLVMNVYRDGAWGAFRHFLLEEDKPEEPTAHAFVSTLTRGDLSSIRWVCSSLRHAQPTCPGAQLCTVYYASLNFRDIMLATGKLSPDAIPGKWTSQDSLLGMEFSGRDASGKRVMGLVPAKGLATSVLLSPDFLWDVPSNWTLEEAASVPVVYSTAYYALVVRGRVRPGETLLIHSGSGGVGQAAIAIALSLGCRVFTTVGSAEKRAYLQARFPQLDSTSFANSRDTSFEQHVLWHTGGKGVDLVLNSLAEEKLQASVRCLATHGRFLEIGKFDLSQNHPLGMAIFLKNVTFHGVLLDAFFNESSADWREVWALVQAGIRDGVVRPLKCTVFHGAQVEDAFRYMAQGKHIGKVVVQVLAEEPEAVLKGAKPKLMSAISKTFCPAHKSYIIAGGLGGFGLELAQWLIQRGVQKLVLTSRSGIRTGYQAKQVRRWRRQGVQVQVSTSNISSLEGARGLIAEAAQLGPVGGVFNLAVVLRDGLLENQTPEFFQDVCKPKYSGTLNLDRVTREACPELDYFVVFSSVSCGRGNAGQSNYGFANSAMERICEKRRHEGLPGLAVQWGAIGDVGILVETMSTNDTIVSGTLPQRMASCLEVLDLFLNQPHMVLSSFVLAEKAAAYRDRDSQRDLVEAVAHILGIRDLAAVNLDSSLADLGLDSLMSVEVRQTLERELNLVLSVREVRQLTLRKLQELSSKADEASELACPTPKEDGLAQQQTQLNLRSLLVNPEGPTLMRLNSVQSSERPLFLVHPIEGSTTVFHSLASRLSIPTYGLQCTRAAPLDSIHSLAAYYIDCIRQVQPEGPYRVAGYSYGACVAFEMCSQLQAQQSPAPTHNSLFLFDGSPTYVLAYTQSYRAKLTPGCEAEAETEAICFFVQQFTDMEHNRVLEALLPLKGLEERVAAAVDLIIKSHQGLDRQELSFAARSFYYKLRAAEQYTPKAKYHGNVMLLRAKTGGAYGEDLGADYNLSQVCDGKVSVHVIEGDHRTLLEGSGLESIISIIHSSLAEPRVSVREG

The assay has as its target T1, recombinant human baculovirus-expressed GST-tagged FASN (Homo sapiens, UniProt P49327).
T1 construct: GST
Kind of assay: FASN enzyme activity assay, fluorescence-based detection of CoA with CPM. Format: biochemical. The note with it: 5 nM FASN, 150 μM NADPH, 10 μM acetyl-CoA, 25 μM malonyl-CoA, 90 minutes incubation; read-out: IC50 data for Compounds of Formulae I-V/V(a): Activity. The source says: FASN Enzyme activity may be determined by detecting coenzyme A (CoA), a product of FASN-catalyzed synthesis of palmitate from acetyl-CoA and malonyl-CoA with NADPH as a cofactor. The assay is fluorescence-based and measures the interaction of free CoA with 7-diethylamino-3-(4′-malemimidylphenyl)-4-methylcoumarin (CPM; Life Technologies, CA) as described in Chung et al (2008). The coumarin derivative CPM contains a thiol-reactive maleimide that becomes fluorescent upon interaction with the sulfhydryl group of CoA.
For the example compounds described herein, the reaction was performed in 384-well low volume non-binding plates (Corning, N.Y.) using recombinant human baculovirus-expressed GST-tagged FASN. The 20-μL assay mixture contained 50 mM HEPES (pH 7.5), 5 nM FASN, 150 μM NADPH (Sigma, St. Louis, Mo.), 10 μM acetyl-CoA (Sigma), 25 μM malonyl-CoA (Sigma) and test compound [diluted in dimethyl sulfoxide (DMSO); 0.5% DMSO final in assay after 100 nL addition]. See, Chung et al.; “A fluorescence-based thiol quantification assay for ultra-high-throughput screening for inhibitors of coenzyme A production,” Assay Drug Dev Tech 2008; 6:361-374.
The reaction was initiated by adding malonyl-CoA, followed by incubation for 90 minutes at […]. A stock solution of the CPM reagent was prepared in DMSO at […] and stored at […]. To detect CoA produced in the FASN reaction, the CPM stock was diluted to […] in 70% ethanol and added at 4 μL/well to the assay plate. The reaction mixture was then incubated for 30 minutes. Fluorescence was measured using the EnVision™ 2102 multi-label plate reader (PerkinElmer, Waltham, Mass.) utilizing a general dual mirror, a 390 nm excitation filter and a 530 nm emission filter. Data analysis was performed using ActivityBase (IDBS, Guilford, UK). IC50 values were calculated by plotting the percent inhibition versus log 10 of the concentration of the compound, and fitting to the nonlinear regression sigmoidal dose-response (variable slope) equation in XLFit (IDBS).
For `CCC(=O)N1CCC(Oc2ccc(-c3ccc4cccnc4c3)cc2)C1` (stereo in doubt) [Example 342, (S)-1-(3-(4-(Quinolin-7-yl)phenoxy)pyrrolidin-1-yl)propan-1-one, HCl], the pIC50 is 5.00 to 6.00. Take `CCC(=O)N1CCC(Oc2ccc(-c3cncc(Nc4ccccc4)c3)cc2)CC1` [Example 401, 1-{4-[4-(5-Phenylaminopyridin-3-yl)-phenoxy]-piperidin-1-yl}-propan-1-one, TFA salt]: the pIC50 was 5.00 to 6.00. Regarding `CC(C)C(=O)N1CCC(S(=O)(=O)c2ccc(-c3ccc4occc4c3)cc2)CC1` [Example 515, 1-[4-(4-Benzofuran-5-yl-benzenesulfonyl)-piperidin-1-yl]-2-methyl-propan-1-one], the pIC50 was 5.00 to 6.00. `COc1c(-c2ccc(OC3CCN(C(=O)[C@H]4CCCO4)CC3)c(F)c2)ccc2cccnc12` [Example 221, {4-[2-Fluoro-4-(8-methoxyquinolin-7-yl)-phenoxy]-piperidin-1-yl}-(R)-tetrahydrofuran-2-yl-methanone]: the pIC50 is 7.00 to 9.00. For `CONC(=O)N1CCC(Oc2ccc(-c3ccc4cccnc4c3C)cc2)CC1` [Example 91, N-methoxy-4-[4-(8-methyl-7-quinolyl)phenoxy]piperidine-1-carboxamide], the pIC50 was 7.00 to 9.00. As to `CCC(=O)N1CCC(Oc2ccc(-c3cnc4c(OC)cccc4c3)cc2)CC1` [Example 57, 1-{4-[4-(8-Methoxyquinolin-3-yl)-phenoxy]-piperidin-1-yl}-propan-1-one], the pIC50 is 6.00 to 7.00.

Consider `O=C(C1CC1)N1CCC(Oc2ccc(-c3ccc4cccnc4c3O)cc2)CC1` [Example 189, Cyclopropyl-{4-[4-(8-hydroxyquinolin-7-yl)-phenoxy]-piperidin-1-yl}-methanone, HCl], for which the pIC50 was 6.00 to 7.00. For the molecule `O=C(C1CC1)N1CCC(Oc2ccc(-c3ccc4cccnc4c3)nc2)CC1` [Example 146, Cyclopropyl-[4-(6-quinolin-7-yl-pyridin-3-yloxy)-piperidin-1-yl]-methanone, 2HCl], the pIC50 is 5.00 to 6.00. The same measure for `CCC(=O)N1CCC(Oc2ccc(-c3ccc4cnccc4c3)nc2)CC1` [Example 147, 1-[4-(6-Isoquinolin-6-yl-pyridin-3-yloxy)-piperidin-1-yl]-propan-1-one, 2HCl]: 5.00 to 6.00; for `CCC(=O)N1CCC(Oc2ccc(-c3cccc(-c4ccccn4)c3C)cc2)CC1` [Example 406, 1-[4-(2′-Methyl-3′-pyridin-2-yl-biphenyl-4-yloxy)-piperidin-1-yl]-propan-1-one; TFA salt]: 5.00 to 6.00.

As for `CCC(=O)N1CCC(Oc2ccc(-c3ccc4c(C)ncc(C)c4c3)cc2)CC1` [Example 469, 1-[4-[4-(1,4-Dimethyl-6-isoquinolyl)phenoxy]-1-piperidyl]propan-1-one, HCl], the pIC50 was 6.00 to 7.00. Regarding `Cc1c(-c2ccc(O[C@@H]3CCN(C(=O)[C@@H]4CCCO4)C[C@H]3F)cc2)ccc2cccnc12` (racemic) [Example 372, {(trans)-3-Fluoro-4-[4-(8-methylquinolin-7-yl)-phenoxy]-piperidin-1-yl}-(R)-tetrahydrofuran-2-yl-methanone, HCl], the pIC50 is 7.00 to 9.00. In the case of `O=C(c1ccccc1)N1CCC(Oc2ccc(-c3cnc4ccccc4c3)cc2)CC1` [Example 127, Phenyl-[4-(4-quinolin-3-yl-phenoxy)-piperidin-1-yl]-methanone, HCl], the pIC50 was 5.00 to 6.00. As for `CCC(=O)N1CCC(Oc2ccc(-c3cccc(Oc4ccccc4)c3)cc2)CC1` [Example 510, 1-[4-(3′-Phenoxybiphenyl-4-yloxy)-piperidin-1-yl]-propan-1-one], the figure is 5.00 to 6.00. The same measure for `CN(c1ccc(-c2cnc3ccccc3c2)cc1)C1CCN(C(=O)[C@H]2CCCO2)CC1` [Example 528, {4-[Methyl-(4-quinolin-3-yl-phenyl)-amino]-piperidin-1-yl}-(R)-tetrahydrofuran-2-yl-methanone, HCl]: 6.00 to 7.00. For `O=C(C1CC1)N1CCC(Oc2ccc(-c3ccc(Cl)c(Cl)c3)cc2)CC1` [Example 501, Cyclopropyl-[4-(3′,4′-dichlorobiphenyl-4-yloxy)-piperidin-1-yl]-methanone], the pIC50 is 5.00 to 6.00. As to `CC(C)C(=O)N1CCC(Sc2ccc(-c3ccc4cccnc4c3)cc2)CC1` [Example 520, HCl], the pIC50 was 7.00 to 9.00. In the case of `Cc1nc2ccc(-c3ccc(OC4CCN(C(=O)[C@H]5CCCO5)CC4)cc3)cn2c1C` [Example 289, {4-[4-(2,3-Dimethylimidazo[1,2-a]pyridin-6-yl)-phenoxy]-piperidin-1-yl}-(R)-tetrahydrofuran 2-yl-methanone], the pIC50 is 5.00 to 6.00. In the case of `CCC(=O)N1CCC(Oc2ccc(-c3cnc4cccc(C)c4c3)cc2)CC1` [Example 460, 1-{4-[4-(5-Methylquinolin-3-yl)-phenoxy]-piperidin-1-yl}-propan-1-one, HCl], the pIC50 is 6.00 to 7.00.

In the case of `Cc1c(-c2ccc(OC3CCN(C(=O)[C@H]4CC4(C)C)CC3)cc2)ccc2cccnc12` [Example 321, ((S)-2,2-Dimethylcyclopropyl)-{4-[4-(8-methyl-quinolin-7-yl)-phenoxy]-piperidin-1-yl}-methanone], the pIC50 is 6.00 to 7.00. For the molecule `Cc1cc(-c2ccc(OC3CCN(C(=O)C4CC4)CC3)cc2)cc2ncccc12` [Example 347, Cyclopropyl(4-(4-(5-methylquinolin-7-yl)phenoxy)piperidin-1-yl)methanone, HCl], the pIC50 is 6.00 to 7.00. Consider `CCC(=O)N1CCC(Oc2ccc(-c3cnc4ccoc4c3)cc2)CC1` [Example 51, 1-[4-(4-Furo[3,2-b]pyridin-6-yl-phenoxy)-piperidin-1-yl]-propan-1-one], for which the pIC50 is 5.00 to 6.00. As for `CCOc1c(-c2ccc(OC3CCN(C(=O)[C@H]4CCCO4)CC3)cc2)ccc2cccnc12` [Example 181, {4-[4-(8-Ethoxyquinolin-7-yl)-phenoxy]-piperidin-1-yl}-(R)-tetrahydro-furan-2-yl-methanone, HCl], the figure is 7.00 to 9.00; as for `Cc1c(-c2ccc(OC3CCN(C(=O)N4CCCC4)CC3)cc2)ccc2cccnc12` [Example 94, [4-[4-(8-methyl-7-quinolyl)phenoxy]-1-piperidyl]-pyrrolidin-1-yl-methanone], 7.00 to 9.00; as for `CC(C)C(=O)N1CCC(Oc2ccc(-c3ccc(-c4ccccc4)nc3)cc2)CC1` [Example 379, 2-Methyl-1-{4-[4-(6-phenylpyridin-3-yl)-phenoxy]-piperidin-1-yl}-propan-1-one], 5.00 to 6.00. Consider `CCC(=O)N1CCC(Oc2ccc(-c3cc4ccccc4nc3Cl)cc2)CC1` [Example 16, 1-{4-[4-(2-Chloroquinolin-3-yl)-phenoxy]-piperidin-1-yl}-propan-1-one], for which the pIC50 was 5.00 to 6.00.

Turning to `CC(C)C(=O)N1CCC(Oc2ccc(-c3cnc4ccccc4c3)cc2F)CC1` [Example 7, 1-[4-(2-Fluoro-4-quinolin-3-yl-phenoxy)-piperidin-1-yl]-2-methyl-propan-1-one], the pIC50 was 7.00 to 9.00. As to `O=C(C1CC1)N1CCC(Oc2ccc(-c3ccc4cccnc4c3F)cc2)CC1` [Example 23, Cyclopropyl-{4-[4-(8-fluoroquinolin-7-yl)-phenoxy]-piperidin-1-yl}-methanone], the pIC50 is 7.00 to 9.00.

Regarding `COc1cc(-c2ccc(OC3CCN(C(=O)C4CC4)CC3)cc2)cn2nccc12` [Example 411, Cyclopropyl-{4-[4-(4-methoxypyrazolo[1,5-a]pyridin-6-yl)-phenoxy]-piperidin-1-yl}-methanone, HCl], the pIC50 is 6.00 to 7.00.
